One assay addresses T1, HDAC8 (Homo sapiens, UniProt Q9BY41).
T1 sequence (Q9BY41 1-377): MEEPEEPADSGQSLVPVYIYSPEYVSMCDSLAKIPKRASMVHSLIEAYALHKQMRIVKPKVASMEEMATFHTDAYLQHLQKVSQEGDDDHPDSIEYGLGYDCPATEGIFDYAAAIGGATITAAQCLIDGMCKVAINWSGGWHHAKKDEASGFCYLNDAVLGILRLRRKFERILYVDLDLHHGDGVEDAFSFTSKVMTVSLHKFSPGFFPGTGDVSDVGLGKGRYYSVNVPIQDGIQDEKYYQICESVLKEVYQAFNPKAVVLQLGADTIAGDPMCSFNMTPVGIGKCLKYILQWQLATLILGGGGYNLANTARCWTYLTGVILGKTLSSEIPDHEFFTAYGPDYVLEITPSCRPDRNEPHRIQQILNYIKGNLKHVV
The experiment in a line: Histone deacetylase activity, continuous trypsin-coupled assay. The format is biochemical. Conditions: 15 minutes preincubation; substrate acetyl-Gly-Ala-(N-acetyl-Lys)-AMC. The protocol:
(§1) HDAC activity was measured using a continuous trypsin-coupled assay that has been described in detail previously (US 20070281934; Schultz et. al., Biochemistry, 43 (34), 11083-11091, 2004; Kim et al. (2006), Methods Mol. Biol., 325:273-283). For inhibitor characterization, measurements were performed in a reaction volume of 100 μL using 96-well assay plates in a fluorescence plate reader. For each isozyme, the HDAC protein in reaction buffer (50 mM HEPES, 100 mM KCl, 0.001% Tween-20, 5% DMSO, pH 7.4, supplemented with bovine serum albumin at concentrations of 0-0.05%, was mixed with inhibitor at various concentrations and allowed to incubate for 15 minutes. Trypsin was added to a final concentration of 50 nM, and acetyl-Gly-Ala-(N-acetyl-Lys)-AMC was added to a final concentration of 25-100 μM to initiate the reaction. After a 30 minute lag time, the fluorescence was measured over a 30 minute time frame using an excitation wavelength of 355 nm and a detection wavelength of 460 nm. The increase in fluorescence with time was used as the measure of the reaction rate. Inhibition constants Ki(app) were obtained using the program BatchKi (Biokin, Pullman, Wash.).

The next assay addresses HDAC1 (Homo sapiens, UniProt Q13547). The assay is described as above. The format is biochemical. The settings on record: 15 minutes preincubation; substrate acetyl-Gly-Ala-(N-acetyl-Lys)-AMC. The method, then:
as §1

In the next assay the target is T2, HDAC6 (Homo sapiens, UniProt Q9UBN7).
T2 sequence (Q9UBN7 1-1215): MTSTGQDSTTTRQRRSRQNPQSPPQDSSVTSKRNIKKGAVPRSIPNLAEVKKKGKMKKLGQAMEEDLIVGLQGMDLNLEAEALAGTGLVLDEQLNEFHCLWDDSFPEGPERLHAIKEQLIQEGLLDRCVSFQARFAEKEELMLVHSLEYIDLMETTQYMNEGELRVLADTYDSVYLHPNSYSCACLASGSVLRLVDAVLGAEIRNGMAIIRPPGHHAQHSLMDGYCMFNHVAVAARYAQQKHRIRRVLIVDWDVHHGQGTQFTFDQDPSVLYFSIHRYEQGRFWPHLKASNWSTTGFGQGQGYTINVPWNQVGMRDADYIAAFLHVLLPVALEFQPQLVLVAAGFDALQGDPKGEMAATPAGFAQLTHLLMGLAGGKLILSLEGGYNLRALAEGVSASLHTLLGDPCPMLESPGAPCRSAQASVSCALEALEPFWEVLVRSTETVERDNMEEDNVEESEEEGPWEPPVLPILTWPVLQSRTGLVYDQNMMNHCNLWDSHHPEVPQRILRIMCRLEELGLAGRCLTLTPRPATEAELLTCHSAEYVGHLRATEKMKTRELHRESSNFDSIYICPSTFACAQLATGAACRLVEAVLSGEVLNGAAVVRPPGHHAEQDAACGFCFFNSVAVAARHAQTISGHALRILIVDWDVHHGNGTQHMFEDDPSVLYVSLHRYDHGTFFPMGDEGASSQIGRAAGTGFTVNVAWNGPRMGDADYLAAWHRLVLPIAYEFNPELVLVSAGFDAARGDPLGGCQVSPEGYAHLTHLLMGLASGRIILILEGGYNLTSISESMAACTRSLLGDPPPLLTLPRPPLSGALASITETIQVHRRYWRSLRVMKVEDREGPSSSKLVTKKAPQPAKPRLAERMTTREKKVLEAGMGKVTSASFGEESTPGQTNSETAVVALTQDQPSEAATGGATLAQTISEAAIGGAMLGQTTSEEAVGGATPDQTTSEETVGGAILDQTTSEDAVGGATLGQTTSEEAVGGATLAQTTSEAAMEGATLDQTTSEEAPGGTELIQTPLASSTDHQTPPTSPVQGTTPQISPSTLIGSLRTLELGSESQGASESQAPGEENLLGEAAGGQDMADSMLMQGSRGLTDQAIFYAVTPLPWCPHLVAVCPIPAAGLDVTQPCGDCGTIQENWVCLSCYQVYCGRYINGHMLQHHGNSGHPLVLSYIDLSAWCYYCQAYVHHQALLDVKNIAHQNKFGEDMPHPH
The assay is described as above. It is filed as biochemical. The settings on record: 15 minutes preincubation; substrate acetyl-Gly-Ala-(N-acetyl-Lys)-AMC. The method, then:
as §1

Another assay deals with Jurkat cells. Nature of the assay: Cell proliferation assay, growth inhibition by Alamar Blue. The format is cell-based. Conditions: Jurkat cells treated with compound for 3 days. The protocol: Cell lines were obtained from DSMZ (Braunschweig, Germany) or ATCC (Manassas, Va.). Cells were grown in RPMI 1640 with 10% fetal bovine serum in a 5% CO2/air incubator at 37° C. Thapsigargin and BAPTA-AM were from Calbiochem (San Diego, Calif.). 3-((dimethylamino)methyl)-N-(2-(4-(hydroxycarbamoyl)phenoxy)ethyl)benzofuran-2-carboxamide is a broad-spectrum HDAC inhibitor which was synthesized as previously described. Other analogs with varying degrees of specificity towards the HDAC isoforms were synthesized as described herein.
Tumor cell lines and human umbilical vein endothelial cells (HUVEC) were cultured for at least two doubling times, and growth was monitored at the end of compound exposure using an Alamar Blue™ (Biosource, Camarillo, Calif.) fluorometric cell proliferation assay as recommended by the manufacturer. Compounds were assayed in triplicate wells in 96-well plates. The concentration required to inhibit cell growth by 50% (GI50) and 95% confidence intervals were estimated from nonlinear regression using a 4-parameter logistic equation. The effect of HDAC8 selective inhibitor compounds on cell proliferation in Jurkat cells was measured. Apoptosis was measured by Annexin-V flow cytommetry. Growth inhibition was measured by Alamar Blue assay. Cells were treated with compound for 3 days.
(The colour change of resazurin is a common sign of viable cells or microbes.)

Another assay addresses HDAC2 (Homo sapiens, UniProt Q92769). Nature of the assay: Histone deacetylase activity, continuous trypsin-coupled assay. The settings on record: 15 minutes preincubation; substrate acetyl-Gly-Ala-(N-acetyl-Lys)-AMC. It is filed as biochemical. The protocol:
as §1

The structures appear in SMILES notation. Where only a bound is given, the exact number is not on record here.

Chain of HDAC1 (Q13547 whole entry, species assumed): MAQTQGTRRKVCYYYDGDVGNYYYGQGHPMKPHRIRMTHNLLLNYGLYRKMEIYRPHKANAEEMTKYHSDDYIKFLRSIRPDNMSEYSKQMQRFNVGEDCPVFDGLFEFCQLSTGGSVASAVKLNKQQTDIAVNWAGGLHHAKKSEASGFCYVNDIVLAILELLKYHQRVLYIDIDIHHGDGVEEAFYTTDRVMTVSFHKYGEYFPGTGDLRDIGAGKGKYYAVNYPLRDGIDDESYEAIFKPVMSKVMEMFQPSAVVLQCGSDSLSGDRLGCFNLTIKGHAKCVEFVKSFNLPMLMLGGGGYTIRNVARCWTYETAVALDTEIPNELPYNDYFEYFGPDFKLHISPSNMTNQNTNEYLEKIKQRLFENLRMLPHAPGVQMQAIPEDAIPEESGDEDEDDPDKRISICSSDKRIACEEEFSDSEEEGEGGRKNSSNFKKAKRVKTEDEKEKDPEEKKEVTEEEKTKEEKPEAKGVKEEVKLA
Chain of HDAC2 (Q92769 whole entry, species assumed): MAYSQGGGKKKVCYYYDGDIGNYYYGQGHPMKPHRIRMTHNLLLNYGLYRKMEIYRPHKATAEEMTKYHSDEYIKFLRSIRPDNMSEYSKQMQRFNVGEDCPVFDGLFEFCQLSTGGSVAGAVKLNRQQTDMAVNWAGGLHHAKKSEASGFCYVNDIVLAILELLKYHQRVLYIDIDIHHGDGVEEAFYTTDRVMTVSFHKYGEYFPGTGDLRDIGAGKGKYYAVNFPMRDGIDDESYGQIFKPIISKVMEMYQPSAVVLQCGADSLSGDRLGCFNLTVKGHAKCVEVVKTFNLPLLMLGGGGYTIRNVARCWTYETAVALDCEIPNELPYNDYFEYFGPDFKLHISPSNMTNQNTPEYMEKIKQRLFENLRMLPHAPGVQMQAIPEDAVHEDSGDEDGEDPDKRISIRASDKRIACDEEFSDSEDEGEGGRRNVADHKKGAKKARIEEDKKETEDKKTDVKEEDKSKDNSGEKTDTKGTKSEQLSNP

By IC50 is commonly meant the point on the concentration scale where inhibition reaches its midpoint. Read a low IC50 as higher potency. Regarding `O=C(NO)c1ccc2ncn(Cc3ccccc3)c2c1` [Compound 1, 3-benzyl-N-hydroxy-3H-benzo[d]imidazole-5-carboxamide], the IC50 against HDAC8 is less than 1 µM; against HDAC1, greater than 10 µM; on HDAC6, 1 to 10 µM.
On to `COc1ccc(Cn2cccc2/C=C/C(=O)NO)cc1` [Compound 203, (E)-3-(1-(4-methoxybenzyl)-1H-pyrrol-2-yl)-N-hydroxyacrylamide], for which the 50% inhibitory concentration (IC50) is less than 1 µM against HDAC8, greater than 10 µM at HDAC1 and 1 to 10 µM against HDAC6.
In general, GI50 refers to the concentration at which growth is held to half of that of the control. As to `O=C(/C=C/c1cccn1CCOc1ccccc1)NO` [Compound 232, (E)-N-hydroxy-3-(2-phenoxyethyl-1H-pyrrol-2-yl)acrylamide], the half-maximal inhibitory concentration (IC50) on HDAC8 is less than 1 µM; on HDAC1, greater than 10 µM; against HDAC6, 1 to 10 µM. The GI50 in the assay on Jurkat cells came to 4.98 µM.
`O=C(/C=C/c1cccn1CCOc1cccc(F)c1)NO` [Compound 234, (E)-3-(1-(2-(3-fluorophenoxy)ethyl)-1H-pyrrol-2-yl)-N-hydroxyacrylamide]: the results for the IC50 at HDAC8, at HDAC1 and against HDAC6 were less than 1 µM, 1 to 10 µM and 1 to 10 µM, respectively. The GI50 in the assay on Jurkat cells (Homo sapiens, 72 h) amounted to 4.3 µM.
With `O=C(NO)c1ccc2ccn(CCc3ccccc3)c2c1` [Compound 302, N-hydroxy-1-(2-phenyl-ethyl)-1H-indole-6-carboxamide], in the assay on Jurkat cells (Homo sapiens, 72 h), the GI50 amounted to 25.2 µM.
On the same count and under the same terms, with `COc1ccc(Cn2ccc3ccc(C(=O)NO)cc32)cc1` [Compound 306, N-hydroxy-1-(4-methoxybenzyl)-1H-indole-6-carboxamide] the figure was 3.6 µM.
`COc1ccc(Cn2cc(CN(C)C)c3ccc(C(=O)NO)cc32)cc1` [Compound 307, N-hydroxy-1-(4-methoxybenzyl)-3-(dimethylaminomethyl)-1H-indole-6-carboxamide]: the results for the IC50 against HDAC8 and against HDAC2 were less than 1 µM and greater than 10 µM, respectively.
For the molecule `COc1ccc(Cn2cc(CNCc3ccccc3)c3ccc(C(=O)NO)cc32)cc1` [Compound 308, 3-((benzylamino)methyl)-N-hydroxy-1-(4-methoxybenzyl)-1H-indole-6-carboxamide], in the assay on Jurkat cells (Homo sapiens, 72 h), the GI50 is 5.2 µM.
Consider `COc1ccc(Cn2cc(CN(C)CCc3ccccn3)c3ccc(C(=O)NO)cc32)cc1` [Compound 309, N-hydroxy-1-(4-methoxybenzyl)-3-((methyl(2-(pyridin-2-yl)ethyl)amino)methyl)-1H-indole-6-carboxamide], for which the results for the IC50 against HDAC8 and against HDAC2 were less than 1 µM and greater than 10 µM, respectively. For the same molecule, the GI50 with Jurkat cells (Homo sapiens, 72 h) is 19.2 µM.
For `COc1ccc(Cn2ccc3ccc(C(=O)NO)cc32)cn1` [Compound 310, N-hydroxy-1-(2-methoxylpyridin-5-ylmethyl)-1H-indole-6-carboxamide] the same measures were less than 1 µM, greater than 10 µM and 16 µM.
As for `O=C(NO)c1ccc2ccn(Cc3cccc(NS(=O)(=O)c4ccccc4)c3)c2c1` [Compound 313, N-hydroxy-1-(3-(phenylsulfonamido)benzyl)-1H-indole-6-carboxamide], the IC50 is less than 1 µM against HDAC8 and 1 to 10 µM on HDAC2. Besides, in the assay with Jurkat cells (Homo sapiens, 72 h), the GI50 is 5.2 µM.
On to `O=C(NO)c1ccc2ccn(Cc3ccc4c(c3)OCO4)c2c1` [Compound 315, N-hydroxy-1-(benzo[d][1,3]dioxol-5-ylmethyl)-1H-indole-6-carboxamide], for which the IC50 on HDAC8 is less than 1 µM; at HDAC2, greater than 10 µM.
As to `O=C(NO)c1ccc2ccn(CCOc3ccccc3F)c2c1` [Compound 317, N-hydroxy-1-(2-(2-fluorophenoxy)ethyl)-1H-indole-6-carboxamide], the IC50 is less than 1 µM against HDAC8, greater than 10 µM against HDAC1 and 1 to 10 µM against HDAC6.
`O=C(NO)c1ccc2ccn(CCOc3cccc(F)c3)c2c1` [Compound 318, N-hydroxy-1-(2-(3-fluorophenoxy)ethyl)-1H-indole-6-carboxamide]: the IC50 was less than 1 µM on HDAC8, greater than 10 µM against HDAC1 and 1 to 10 µM at HDAC6.
The like results for `O=C(NO)c1ccc2ccn(CCOc3ccccc3Cl)c2c1` [Compound 320, N-hydroxy-1-(2-(2-chlorophenoxy)ethyl)-1H-indole-6-carboxamide] were, in that order, less than 1 µM, greater than 10 µM and 1 to 10 µM.
For `O=C(NO)c1ccc2ccn(CCOc3cccc(Cl)c3)c2c1` [Compound 321, N-hydroxy-1-(2-(3-chlorophenoxy)ethyl)-1H-indole-6-carboxamide] the same measures were less than 1 µM, greater than 10 µM and 1 to 10 µM.
For `O=C(NO)c1ccc2ccn(CCOc3ccc(CN4CCOCC4)cc3)c2c1` [Compound 328, N-hydroxy-1-(2-(4-(morpholin-4-ylmethyl)phenoxy)ethyl)-1H-indole-6-carboxamide], the GI50 in the assay with Jurkat cells (Homo sapiens, 72 h) is 12.5 µM.
Same read-out and setting: with `COc1ccc(Cn2ccc3ccc(C(=O)NO)cc32)cc1F` [Compound 330, N-hydroxy-1-(3-fluoro-4-methoxybenzyl)-1H-indole-6-carboxamide] the figure was 4.7 µM.

(Values after patent US8466193B2, “Selective inhibitors of histone deacetylase” (Pharmacyclics, Inc., priority 2008, dated 2013).)
